Measured values reported in ChEMBL document CHEMBL5104113, “Biophysical Survey of Small-Molecule β-Catenin Inhibitors: A Cautionary Tale” (J Med Chem, 2022).

Tests used:
Catenin beta-1 [1] = target: T1, Catenin beta-1 (Homo sapiens, UniProt P35222)
T1 sequence (P35222 whole entry): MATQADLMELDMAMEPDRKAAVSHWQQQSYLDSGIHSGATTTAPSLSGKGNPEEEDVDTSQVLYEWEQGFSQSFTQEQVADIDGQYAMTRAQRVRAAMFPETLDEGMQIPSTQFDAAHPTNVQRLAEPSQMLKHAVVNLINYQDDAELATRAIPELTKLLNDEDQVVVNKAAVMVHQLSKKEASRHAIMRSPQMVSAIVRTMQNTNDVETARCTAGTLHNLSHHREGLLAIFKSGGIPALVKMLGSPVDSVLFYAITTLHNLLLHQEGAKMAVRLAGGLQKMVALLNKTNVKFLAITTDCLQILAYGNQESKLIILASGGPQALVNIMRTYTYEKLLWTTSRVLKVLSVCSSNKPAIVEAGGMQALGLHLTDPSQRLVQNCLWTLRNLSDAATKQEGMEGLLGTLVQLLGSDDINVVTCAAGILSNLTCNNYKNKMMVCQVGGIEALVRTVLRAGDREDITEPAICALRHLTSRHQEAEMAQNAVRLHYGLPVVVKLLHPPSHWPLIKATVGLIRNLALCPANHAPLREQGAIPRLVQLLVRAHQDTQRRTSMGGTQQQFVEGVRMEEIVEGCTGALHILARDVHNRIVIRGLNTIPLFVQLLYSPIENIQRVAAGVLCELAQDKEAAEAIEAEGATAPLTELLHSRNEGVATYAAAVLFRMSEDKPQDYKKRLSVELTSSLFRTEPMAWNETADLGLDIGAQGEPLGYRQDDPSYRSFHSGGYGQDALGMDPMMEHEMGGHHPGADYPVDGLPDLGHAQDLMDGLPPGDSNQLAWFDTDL
Description: Binding affinity to beta catenin ARD (142 to 686 residues) (unknown origin) assessed as inhibition constant by fluorescence polarisation assay

[2] = target: T2, Catenin beta-1 (Homo sapiens) (UniProt P35222)
T2 sequence (whole entry): T1 sequence (P35222 whole entry)
Description: Binding affinity to beta catenin ARD (142 to 686 residues) (unknown origin) assessed as change in entropy by VP-ITC method

Catenin beta-1 [3] = target: T1, Catenin beta-1; test: Inhibition of beta catenin in HEK293 cells by TOPflash luciferase reporter assay; format: cell-based
[4] = Inhibition of Tcf in HEK293 cells by TOPflash luciferase reporter assay; format: cell-based; conditions: Homo sapiens
[5] = target: T2, Catenin beta-1 (Homo sapiens); conditions: dose 125.0 µM
Description: Thermal stabilization of wildtype beta catenin ARD (148 to 662 residues) (unknown origin) assessed as change in melting temperature at 125 uM by DSF method

HCT-116 [6] = test: Inhibition of cell growth in human HCT-116 cells incubated for 24 hrs by WST-1 assay; format: functional
SW480 [7] = test: Inhibition of cell growth in human SW480 cells incubated for 24 hrs by WST-1 assay; format: functional
TCF4-CTNNB1 complex = target: T3, TCF4-CTNNB1 complex (Homo sapiens, UniProt P35222+Q9NQB0); test: Inhibition of beta catenin/recombinant GST tagged Tcf4 protein protein interaction in human HCT-116 cells; format: cell-based
T3 sequence (P35222 whole entry): T1 sequence (P35222 whole entry)
T3 sequence (P15884 whole entry): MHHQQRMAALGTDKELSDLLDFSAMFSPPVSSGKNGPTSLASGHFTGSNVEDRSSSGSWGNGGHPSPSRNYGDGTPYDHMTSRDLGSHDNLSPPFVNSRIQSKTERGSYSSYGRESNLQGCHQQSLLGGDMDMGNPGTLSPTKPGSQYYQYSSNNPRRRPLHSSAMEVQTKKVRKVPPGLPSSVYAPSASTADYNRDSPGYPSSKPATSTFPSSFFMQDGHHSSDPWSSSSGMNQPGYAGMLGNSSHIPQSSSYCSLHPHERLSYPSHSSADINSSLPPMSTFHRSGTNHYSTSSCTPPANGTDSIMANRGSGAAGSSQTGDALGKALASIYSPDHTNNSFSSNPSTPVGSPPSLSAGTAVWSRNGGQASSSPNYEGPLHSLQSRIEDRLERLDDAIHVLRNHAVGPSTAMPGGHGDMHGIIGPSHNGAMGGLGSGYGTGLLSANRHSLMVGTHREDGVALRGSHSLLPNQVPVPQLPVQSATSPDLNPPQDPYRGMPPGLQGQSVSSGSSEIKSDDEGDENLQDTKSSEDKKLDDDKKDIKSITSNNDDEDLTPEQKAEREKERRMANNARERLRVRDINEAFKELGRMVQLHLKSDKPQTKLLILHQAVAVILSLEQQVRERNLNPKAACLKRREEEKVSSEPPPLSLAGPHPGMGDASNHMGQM

A549 = test: Antiproliferative activity against human A549 cells expressing wnt2 incubated for 72 hrs by celltitre 96 non-radioactive cell proliferation assay kit; format: functional, cell-based; conditions: A549, 72 h
[8] = Inhibition of Wnt/beta-catenin (unknown origin) transcriptional activity pathway transfected human H1299 cells by measuring luciferase activity after 24 hrs by TOP-flash luciferase reporter gene assay; format: cell-based; conditions: nci-h1299
[9] = target: Poly(ADP-ribose) glycohydrolase (Homo sapiens, UniProt Q86W56); test: Binding affinity to human PARG assessed as dissociation constant by SPR analysis
Sequence of Poly(ADP-ribose) glycohydrolase (Q86W56 whole entry): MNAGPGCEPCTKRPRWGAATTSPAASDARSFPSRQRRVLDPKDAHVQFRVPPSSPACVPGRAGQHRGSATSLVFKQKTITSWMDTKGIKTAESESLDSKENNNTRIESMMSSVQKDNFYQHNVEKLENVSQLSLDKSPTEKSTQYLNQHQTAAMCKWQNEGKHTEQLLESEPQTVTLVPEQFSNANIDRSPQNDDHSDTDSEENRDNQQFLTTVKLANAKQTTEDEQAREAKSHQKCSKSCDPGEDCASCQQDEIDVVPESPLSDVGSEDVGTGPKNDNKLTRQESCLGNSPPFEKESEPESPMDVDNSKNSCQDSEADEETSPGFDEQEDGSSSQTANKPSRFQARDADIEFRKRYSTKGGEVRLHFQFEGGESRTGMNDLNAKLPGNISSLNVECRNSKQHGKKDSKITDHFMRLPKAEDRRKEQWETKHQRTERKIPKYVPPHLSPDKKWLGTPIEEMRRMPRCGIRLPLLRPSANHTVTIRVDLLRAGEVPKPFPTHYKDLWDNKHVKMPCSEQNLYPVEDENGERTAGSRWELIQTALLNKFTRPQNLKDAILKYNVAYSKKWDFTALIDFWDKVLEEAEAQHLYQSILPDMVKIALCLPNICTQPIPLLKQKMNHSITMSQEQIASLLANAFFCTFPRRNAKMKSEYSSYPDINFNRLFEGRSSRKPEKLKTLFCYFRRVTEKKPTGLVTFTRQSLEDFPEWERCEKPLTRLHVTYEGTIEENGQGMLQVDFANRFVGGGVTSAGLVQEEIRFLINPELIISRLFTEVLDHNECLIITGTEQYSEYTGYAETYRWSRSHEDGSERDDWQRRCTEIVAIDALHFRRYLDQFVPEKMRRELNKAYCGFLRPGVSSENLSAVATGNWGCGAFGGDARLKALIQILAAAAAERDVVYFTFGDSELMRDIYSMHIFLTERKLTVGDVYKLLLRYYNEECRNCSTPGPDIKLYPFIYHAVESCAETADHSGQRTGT

[10] = Downregulation of c-Myc protein expression level in human PANC-1 cells; format: functional, cell-based
[11] = Downregulation of c-Myc protein expression level in human ASPC1 cells; format: functional, cell-based
[12] = target: T4, beta-catenin-B-cell lymphoma 9 protein complex (Homo sapiens, UniProt P35222); test: Binding affinity to N-terminal FLAG tagged beta catenin (134 to 671 residues)/FLAG tagged BCL9 domain 2 (343 to 396 residues) (unknown origin) protein protein interaction assessed as inhibition constant; format: protein-complex assay
T4 sequence (P35222 whole entry): T1 sequence (P35222 whole entry)
T4 sequence (O00512 whole entry): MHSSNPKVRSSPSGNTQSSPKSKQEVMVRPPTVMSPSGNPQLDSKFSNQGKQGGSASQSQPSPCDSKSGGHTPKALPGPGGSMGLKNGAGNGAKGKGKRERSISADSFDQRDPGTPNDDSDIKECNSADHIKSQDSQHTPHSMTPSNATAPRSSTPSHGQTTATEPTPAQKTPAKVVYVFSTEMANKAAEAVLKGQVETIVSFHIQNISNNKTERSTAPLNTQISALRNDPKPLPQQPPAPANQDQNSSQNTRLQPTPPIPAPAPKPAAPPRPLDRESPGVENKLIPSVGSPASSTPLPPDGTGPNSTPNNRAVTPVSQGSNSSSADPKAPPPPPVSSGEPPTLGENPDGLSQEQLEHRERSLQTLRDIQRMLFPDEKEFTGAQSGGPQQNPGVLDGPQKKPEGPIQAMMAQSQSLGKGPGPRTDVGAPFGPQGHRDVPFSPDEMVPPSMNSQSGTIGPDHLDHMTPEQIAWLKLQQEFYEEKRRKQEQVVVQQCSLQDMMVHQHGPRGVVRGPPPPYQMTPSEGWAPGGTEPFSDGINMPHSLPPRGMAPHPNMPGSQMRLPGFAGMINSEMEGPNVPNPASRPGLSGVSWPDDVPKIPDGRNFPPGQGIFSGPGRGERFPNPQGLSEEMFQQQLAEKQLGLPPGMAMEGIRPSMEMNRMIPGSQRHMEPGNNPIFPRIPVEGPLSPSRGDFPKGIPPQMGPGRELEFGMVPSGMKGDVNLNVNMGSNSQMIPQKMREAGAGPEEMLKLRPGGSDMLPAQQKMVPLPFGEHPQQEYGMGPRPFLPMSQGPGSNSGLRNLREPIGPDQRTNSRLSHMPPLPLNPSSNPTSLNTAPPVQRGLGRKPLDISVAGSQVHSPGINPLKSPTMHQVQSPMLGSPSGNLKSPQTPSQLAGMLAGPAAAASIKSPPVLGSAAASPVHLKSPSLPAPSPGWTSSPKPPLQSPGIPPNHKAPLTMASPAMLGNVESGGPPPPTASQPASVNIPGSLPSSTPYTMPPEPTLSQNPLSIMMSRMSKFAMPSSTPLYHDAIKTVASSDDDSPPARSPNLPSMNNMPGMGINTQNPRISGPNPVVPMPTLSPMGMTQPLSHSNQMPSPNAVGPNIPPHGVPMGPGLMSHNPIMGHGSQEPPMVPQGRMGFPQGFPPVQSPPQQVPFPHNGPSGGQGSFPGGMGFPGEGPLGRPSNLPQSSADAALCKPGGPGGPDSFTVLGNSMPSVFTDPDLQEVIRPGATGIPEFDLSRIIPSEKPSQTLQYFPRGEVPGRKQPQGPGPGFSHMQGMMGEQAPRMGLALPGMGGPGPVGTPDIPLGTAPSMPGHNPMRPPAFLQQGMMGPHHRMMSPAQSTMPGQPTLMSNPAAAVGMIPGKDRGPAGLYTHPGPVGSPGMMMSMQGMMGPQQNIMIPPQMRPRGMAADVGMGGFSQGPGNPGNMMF

Catenin beta-1 [13] = target: T1, Catenin beta-1; test: Binding affinity to N-terminal FLAG tagged beta catenin alpha helix (H1 - 141 to 149 aa) of armadillo repeat domain (unknown origin) by STD/HSQC based NMR analysis
HCT-116 [14] = test: Cytotoxicity against human HCT-116 cells assessed as cell viability incubated for 72 hrs by cell titre glo assay; format: functional, cell-based; conditions: HCT-116, 72 h
SW480 [15] = test: Cytotoxicity against human SW480 cells assessed as cell viability incubated for 72 hrs by cell titre glo assay; format: functional, cell-based; conditions: SW480, 72 h
SW-620 = test: Cytotoxicity against human SW-620 cells assessed as cell viability incubated for 72 hrs by cell titre glo assay; format: functional, cell-based; conditions: SW-620, 72 h

Row | SMILES | ΔTm [5] | other results
1 | On1ncc2cc(CCc3nn[nH]n3)ccc21 |  | Ki (Catenin beta-1 [1]): 3 µM; -TdeltaS [2]: -7.89 kcal/mol
2 | CCc1cccc2c3c([nH]c12)[C@@](CC)(CC(=O)O)OCC3 [SDX-101] | -0.5 °C | IC50 (Catenin beta-1 [3]): 683 µM; IC50 [4]: 46 µM
3 | COc1cccc(/C=C2/SC(=S)N(CCC(=O)O)C2=O)c1OC | -0.5 °C | 
4 | Cc1ccc(/C=N/NC(=O)c2ccccc2Oc2ccccc2)o1 | -0.5 °C | 
5 | Cc1ccc2nc(N(C)C)nc(NCc3ccc(C(=O)NCc4ccc(F)cc4)cc3)c2c1 | -0.7 °C | 
6 | O=C(CN1C2=NCCN2c2ccccc21)c1ccc(-c2ccccc2)cc1 | -0.1 °C | GI50 (HCT-116 [6]): 13.9 µM; GI50 (SW480 [7]): 13.2 µM
7 | COc1c(C[C@H](C)OC(=O)Oc2ccc(O)cc2)c2c3c(C[C@H](C)OC(=O)c4ccccc4)c(OC)c(=O)c4c(O)cc(OC)c(c5c(OC)cc(O)c(c1=O)c52)c43 |  | IC50 (TCF4-CTNNB1 complex): 10 µM
8 | Fc1ccc2nc(OCCN3CCCC3)c(C#Cc3ccccc3)nc2c1 | 0.1 °C | IC50 (A549): 10 µM
9 | COC(=O)c1cccc(NS(=O)(=O)c2ccc(C)cc2)c1 | -0.5 °C | 
10 | O=C(O)c1ccccc1Oc1ccccc1 | -0.1 °C | 
11 | O=C1C(Cl)=C(Nc2ccc(S(=O)(=O)Nc3ccccn3)cc2)C(=O)c2ccccc21 |  | IC50 [8]: 2.3 µM
12 | O=C(O)c1ccccc1-c1c2ccc(=O)cc-2oc2cc(O)ccc12 | 0.1 °C | 
13 | CC(C)(C)NS(=O)(=O)c1ccc2c(c1)C(=O)c1ccccc1C2=O |  | Kd [9]: 0.00145 µM
14 | O=C(Nc1ccc(O[C@H]2CCNC2)c(-c2ccc(F)cc2)c1)c1ccc(O[C@@H]2CCNC2)c(-c2ccc(F)c(F)c2)c1 | -0.5 °C | 
15 | COc1ccc2[nH]c3c(-c4cccc5ccccc45)nccc3c2c1 | -0.9 °C | IC50 [10]: < 0.5 µM; IC50 [11]: < 0.5 µM
16 | CN(C)CCOc1nc2ccccc2nc1C#Cc1ccccc1 | 0 °C | 
17 | Cn1ncnc2c(=O)n(C)c(=O)nc1-2 | -0.5 °C | 
18 | Cc1ccc(S(=O)(=O)Nc2cccc(C(=O)O)c2)cc1 | -0.5 °C | 
19 | COc1c(C[C@H](C)OC(=O)c2c(C)cc(O)cc2O)c2c3c(C[C@H](C)OC(=O)c4c(C)cc(O)cc4O)c(OC)c(=O)c4c(O)cc(OC)c(c5c(OC)cc(O)c(c1=O)c52)c43 |  | IC50 (TCF4-CTNNB1 complex): 10 µM
20 | CN(C)c1ccc(-c2nc3cc(F)ccc3[nH]2)cc1 | -0.1 °C | 
21 | CCc1ccc(-c2nc(CSCC(=O)NCCc3ccccc3)c(C)o2)cc1 | -0.7 °C | 
22 | CC(C)c1cc2c(c(O)c1O)[C@@]1(C(=O)O)CCCC(C)(C)[C@@H]1CC2 [CARNOSIC ACID] | -2.7 °C | Ki [12]: 3 µM; Kd (Catenin beta-1 [13]): 20 µM
23 | c1ccc(CCNc2nc(N3CCCCC3)nc3ccccc23)cc1 | -0.6 °C | IC50 (HCT-116 [14]): 6.2 µM; IC50 (SW480 [15]): 5.9 µM; IC50 (SW-620): 6.7 µM
24 | Cc1cc(Cl)ccc1/N=C\c1ccc(F)c(Oc2ccccc2)c1 | 0.1 °C | 
